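Five compound concentrations were applied to cells in 96-well plates for 48 hours; endpoints were derived by simple linear interpolation of the resulting dose-response curve. TGI: concentration producing complete growth inhibition.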 Where only a bound is given, the exact number is not on record here.

Test in all cases: NCI tumour cell line growth inhibition, 48 h
For assay [1], the system named is UACC-257 melanoma.
The subject of assay [2] is CCRF-CEM leukemia.
The subject of assay [3] is BT-549 breast.
Assay [4] relates to SK-MEL-5 melanoma.
Assay [5] concerns MCF7 breast.
The test system of assay [6] is 786-0 renal.
For assay [7], the system named is OVCAR-5 ovarian.
The test system of assay [8] is RXF 393 renal.
Assay [9] relates to HCT-15 colon.
In assay [10] the test system is M14 melanoma.
In assay [11] the test system is MDA-MB-231 breast.
The test system of assay [12] is SK-OV-3 ovarian.
In assay [13] the test system is NCI-H522 lung.
For assay [14], the system named is LOX IMVI melanoma.
Assay [15] deals with PC-3 prostate.
The subject of assay [16] is A549 NSCLC.
Assay [17] deals with OVCAR-3 ovarian.
Assay [18] concerns NCI-H23 lung.

For the compound `Cc1ccc(S(=O)(=O)Nn2c(S)c(C#N)c(-c3ccc([N+](=O)[O-])cc3)c(C#N)c2=O)cc1`, the TGI was greater than 100 µM in assay [1]; 52.6 µM in assay [2]; 29.6 µM in assay [3]; 29.5 µM in assay [4]; greater than 100 µM in assay [5]; 52.2 µM in [6]. Besides, the TGI in assay [7] was greater than 100 µM; in assay [8] it was greater than 100 µM; in [9] it was 49.7 µM; in assay [10], greater than 100 µM; in [11] it was 36.5 µM; in assay [12], greater than 100 µM. Also, the TGI in assay [13] is 30.2 µM; in assay [14] it was 28.5 µM; in assay [15], greater than 100 µM; in [16], greater than 100 µM.
As for `CC(=O)N1N(c2ccc([N+](=O)[O-])cc2)C(=O)C1(C)C`, the TGI in assay [2] worked out at 33.3 µM; in [3], 24.2 µM; in [4] it was 30.8 µM; in assay [17], 40.5 µM; in assay [18], 37.8 µM; in [5], 42.5 µM. For the same compound, the TGI in assay [6] worked out at 36.6 µM; in assay [7] it was 44.3 µM; in assay [8], 32.3 µM; in assay [9] it was 34.5 µM; in assay [10], 23.7 µM; in assay [11], 45.7 µM. Also, the TGI in assay [12] was greater than 100 µM; in [13], 27.2 µM; in assay [14], 26.5 µM; in [15], 32 µM.
With `O=C(O)CC1OCC=C2CN3CCC45C6=CC(=O)C(=O)C([N+](=O)[O-])=C6NC4C1C2CC35` (configuration not stated), the TGI in assay [1] was greater than 100 µM; in assay [2] it was 61.8 µM; in assay [3], greater than 100 µM; in assay [4], greater than 100 µM; in assay [17], greater than 100 µM; in [18], greater than 100 µM. Further, the TGI in assay [5], in [6], in assay [7], in assay [8], in [9] and in assay [10] was greater than 100 µM each time. The TGI in assay [11], in assay [12], in assay [13], in [14], in [15] and in assay [16] was greater than 100 µM throughout.
On to `Clc1nc(NCCc2ccccc2)c2ncn(-c3ccccc3)c2n1`, for which the TGI in [1] was determined as 34.6 µM; in assay [3], 60 µM; in assay [4], 32.5 µM; in assay [17], 82.2 µM; in assay [18], 77.3 µM; in [5] it was 60.8 µM. The TGI in assay [6] is 31.4 µM; in [7] it was greater than 100 µM; in [8] it was greater than 100 µM; in assay [9] it was greater than 100 µM; in assay [10] it was 49.7 µM; in assay [11], 62.8 µM. Besides, the TGI is 60.7 µM in assay [12]; 56.4 µM in assay [13]; 43.1 µM in [14]; 47.8 µM in [15]; greater than 100 µM in assay [16].
With `Nc1ncnc2c1cnn2Cc1cn(COCC(O)CO)nn1` (configuration not stated), the TGI in assay [1], in assay [2], in assay [3], in [4], in assay [17] and in assay [18] was greater than 100 µM throughout. In addition, the TGI in [5], in assay [6], in assay [7], in assay [9], in assay [10] and in assay [11] was greater than 100 µM throughout. In addition, the TGI in [12] was greater than 100 µM; in assay [13] it was 30.8 µM; in [14], greater than 100 µM; in assay [15], greater than 100 µM; in assay [16], greater than 100 µM.
For the compound `O=C1CC(C(=O)N2CCCCC2)n2c(=O)n(-c3ccccc3)c(=O)n2C1` (configuration not stated), the TGI in assay [1], in assay [3], in assay [4], in assay [17], in [18] and in assay [5] was greater than 100 µM in each case. Besides, the TGI in assay [6], in assay [7], in assay [8], in [9], in assay [10] and in assay [11] was greater than 100 µM throughout. In addition, the TGI in assay [12], in [13], in assay [14], in assay [15] and in [16] was greater than 100 µM in each case.
As for `CCSc1nc(=[N+]2CCCC2)ss1`, the TGI in assay [1] is greater than 100 µM; in assay [2], 13.2 µM; in assay [3], 95.9 µM; in assay [4], 3.55 µM; in assay [17], 48.2 µM; in assay [18], greater than 79.9 µM. In addition, the TGI in assay [5] is 41.1 µM; in assay [6] it was greater than 87 µM; in assay [7], greater than 100 µM; in assay [8] it was greater than 83.3 µM; in [9] it was greater than 92.8 µM; in assay [10], greater than 100 µM. In addition, the TGI was greater than 100 µM in assay [11]; greater than 100 µM in assay [12]; greater than 100 µM in assay [13]; 55.2 µM in assay [14]; greater than 100 µM in assay [15]; greater than 100 µM in assay [16].
With `O=c1oc(-c2ccccc2)c(-c2ccccc2)n1-c1ccc(Br)cc1`, the TGI in [1] is greater than 100 µM; in assay [2], greater than 100 µM; in assay [3], greater than 100 µM; in assay [4], greater than 100 µM; in [17], greater than 100 µM; in assay [18] it was 85.3 µM. Besides, the TGI in assay [5], in assay [6], in assay [7], in [8], in assay [9] and in assay [10] was greater than 100 µM in each case. The TGI is greater than 100 µM in assay [11]; greater than 100 µM in assay [12]; 62.7 µM in [13]; greater than 100 µM in assay [14]; greater than 100 µM in assay [15]; greater than 100 µM in assay [16].
